Legend:
[1] = target: PIK3CB (Human) (UniProt P42338); assay: Assessment of PIK3CB Kinase Activity
[2] = target: PIK3CD (Human) (UniProt O00329); assay: Assessment of PIK3CD Kinase Activity
[3] = target: PIK3CA (human) (UniProt P42336); assay: Assessment of PIK3CA Kinase Activity
[4] = target: PIK3CG (human) (UniProt P48736); assay: Assessment of PIK3CG Kinase Activity
Sequence of PIK3CG (human) (P48736 whole entry, looked up): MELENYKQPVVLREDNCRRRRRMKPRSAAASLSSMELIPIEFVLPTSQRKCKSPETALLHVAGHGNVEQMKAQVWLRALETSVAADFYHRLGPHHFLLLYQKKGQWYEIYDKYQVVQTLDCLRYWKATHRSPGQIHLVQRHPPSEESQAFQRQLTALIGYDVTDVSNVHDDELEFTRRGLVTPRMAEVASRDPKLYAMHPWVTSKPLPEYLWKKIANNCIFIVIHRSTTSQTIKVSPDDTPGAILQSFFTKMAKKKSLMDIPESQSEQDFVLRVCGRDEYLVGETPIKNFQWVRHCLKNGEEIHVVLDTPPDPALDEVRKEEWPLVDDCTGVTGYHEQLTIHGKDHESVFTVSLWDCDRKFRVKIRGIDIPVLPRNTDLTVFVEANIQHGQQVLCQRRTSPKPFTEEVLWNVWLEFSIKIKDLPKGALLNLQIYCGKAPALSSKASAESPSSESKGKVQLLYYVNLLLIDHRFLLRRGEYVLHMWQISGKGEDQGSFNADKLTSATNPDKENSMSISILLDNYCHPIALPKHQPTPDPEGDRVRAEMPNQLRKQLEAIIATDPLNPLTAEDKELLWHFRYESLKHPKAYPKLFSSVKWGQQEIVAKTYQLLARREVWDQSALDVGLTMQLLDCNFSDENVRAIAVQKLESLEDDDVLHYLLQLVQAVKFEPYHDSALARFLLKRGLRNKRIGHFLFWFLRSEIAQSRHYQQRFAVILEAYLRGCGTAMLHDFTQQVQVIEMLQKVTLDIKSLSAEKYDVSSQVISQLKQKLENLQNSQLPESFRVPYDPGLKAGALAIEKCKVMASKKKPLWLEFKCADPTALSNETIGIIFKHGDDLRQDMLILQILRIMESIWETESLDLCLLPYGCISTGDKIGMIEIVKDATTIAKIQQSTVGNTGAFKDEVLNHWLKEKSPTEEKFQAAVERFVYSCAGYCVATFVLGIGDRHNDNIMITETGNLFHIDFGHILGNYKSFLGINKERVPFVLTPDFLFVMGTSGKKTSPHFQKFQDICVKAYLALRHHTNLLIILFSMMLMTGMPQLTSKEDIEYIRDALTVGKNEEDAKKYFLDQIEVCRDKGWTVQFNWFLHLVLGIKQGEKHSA

Sequence of PIK3CA (human) (P42336 whole entry, looked up): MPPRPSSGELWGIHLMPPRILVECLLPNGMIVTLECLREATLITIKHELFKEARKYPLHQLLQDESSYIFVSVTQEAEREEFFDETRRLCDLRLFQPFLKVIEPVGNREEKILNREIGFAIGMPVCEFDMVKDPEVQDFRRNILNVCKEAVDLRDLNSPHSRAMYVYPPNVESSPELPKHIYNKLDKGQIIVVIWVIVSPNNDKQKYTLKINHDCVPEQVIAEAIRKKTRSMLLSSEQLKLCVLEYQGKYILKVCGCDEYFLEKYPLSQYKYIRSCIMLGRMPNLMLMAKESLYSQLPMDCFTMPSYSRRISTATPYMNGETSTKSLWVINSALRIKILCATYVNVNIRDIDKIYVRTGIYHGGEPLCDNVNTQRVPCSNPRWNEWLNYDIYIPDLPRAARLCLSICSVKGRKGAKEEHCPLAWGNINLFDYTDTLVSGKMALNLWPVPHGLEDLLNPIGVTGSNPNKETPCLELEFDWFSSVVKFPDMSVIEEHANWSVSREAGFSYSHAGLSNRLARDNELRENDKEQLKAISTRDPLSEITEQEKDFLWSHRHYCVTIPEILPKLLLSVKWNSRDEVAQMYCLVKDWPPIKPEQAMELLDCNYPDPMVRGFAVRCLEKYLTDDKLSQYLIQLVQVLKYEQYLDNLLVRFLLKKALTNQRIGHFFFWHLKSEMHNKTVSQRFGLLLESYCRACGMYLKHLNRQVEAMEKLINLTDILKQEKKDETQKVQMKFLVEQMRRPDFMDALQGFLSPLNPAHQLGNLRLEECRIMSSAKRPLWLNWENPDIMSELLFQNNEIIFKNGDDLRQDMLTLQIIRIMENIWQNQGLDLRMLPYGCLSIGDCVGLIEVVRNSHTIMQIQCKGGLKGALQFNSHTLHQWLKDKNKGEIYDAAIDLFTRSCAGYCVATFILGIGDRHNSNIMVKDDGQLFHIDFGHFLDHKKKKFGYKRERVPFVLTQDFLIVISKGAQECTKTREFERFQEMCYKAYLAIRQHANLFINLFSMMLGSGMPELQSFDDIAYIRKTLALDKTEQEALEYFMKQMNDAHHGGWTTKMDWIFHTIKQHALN
Sequence of PIK3CD (Human) (O00329 whole entry, looked up): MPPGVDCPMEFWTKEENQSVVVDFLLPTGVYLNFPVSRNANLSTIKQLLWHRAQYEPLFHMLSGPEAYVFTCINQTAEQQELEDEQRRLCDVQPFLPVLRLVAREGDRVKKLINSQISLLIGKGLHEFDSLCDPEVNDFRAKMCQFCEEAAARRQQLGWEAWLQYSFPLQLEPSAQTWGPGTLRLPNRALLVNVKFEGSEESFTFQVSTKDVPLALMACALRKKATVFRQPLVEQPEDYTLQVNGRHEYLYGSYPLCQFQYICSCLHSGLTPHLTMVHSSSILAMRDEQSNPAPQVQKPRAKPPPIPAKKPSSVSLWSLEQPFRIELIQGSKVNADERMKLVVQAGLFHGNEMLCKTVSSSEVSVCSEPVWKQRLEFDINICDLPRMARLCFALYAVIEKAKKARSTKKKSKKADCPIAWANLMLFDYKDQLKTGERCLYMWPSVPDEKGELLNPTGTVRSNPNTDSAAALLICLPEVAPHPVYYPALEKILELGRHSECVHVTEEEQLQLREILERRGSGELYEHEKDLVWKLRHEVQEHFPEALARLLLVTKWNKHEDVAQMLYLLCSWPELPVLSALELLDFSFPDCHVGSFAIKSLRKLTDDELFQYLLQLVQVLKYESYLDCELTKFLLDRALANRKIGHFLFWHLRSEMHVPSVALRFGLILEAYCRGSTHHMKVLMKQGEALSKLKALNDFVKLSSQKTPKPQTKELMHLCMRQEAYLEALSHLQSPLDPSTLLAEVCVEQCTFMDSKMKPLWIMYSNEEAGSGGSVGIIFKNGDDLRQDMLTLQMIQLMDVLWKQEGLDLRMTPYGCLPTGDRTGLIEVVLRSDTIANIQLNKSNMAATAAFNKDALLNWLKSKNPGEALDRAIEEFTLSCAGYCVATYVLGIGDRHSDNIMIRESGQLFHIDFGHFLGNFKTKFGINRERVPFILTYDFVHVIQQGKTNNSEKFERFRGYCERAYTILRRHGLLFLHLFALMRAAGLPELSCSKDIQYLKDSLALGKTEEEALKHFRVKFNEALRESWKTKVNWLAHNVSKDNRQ
Sequence of PIK3CB (Human) (P42338 whole entry, looked up): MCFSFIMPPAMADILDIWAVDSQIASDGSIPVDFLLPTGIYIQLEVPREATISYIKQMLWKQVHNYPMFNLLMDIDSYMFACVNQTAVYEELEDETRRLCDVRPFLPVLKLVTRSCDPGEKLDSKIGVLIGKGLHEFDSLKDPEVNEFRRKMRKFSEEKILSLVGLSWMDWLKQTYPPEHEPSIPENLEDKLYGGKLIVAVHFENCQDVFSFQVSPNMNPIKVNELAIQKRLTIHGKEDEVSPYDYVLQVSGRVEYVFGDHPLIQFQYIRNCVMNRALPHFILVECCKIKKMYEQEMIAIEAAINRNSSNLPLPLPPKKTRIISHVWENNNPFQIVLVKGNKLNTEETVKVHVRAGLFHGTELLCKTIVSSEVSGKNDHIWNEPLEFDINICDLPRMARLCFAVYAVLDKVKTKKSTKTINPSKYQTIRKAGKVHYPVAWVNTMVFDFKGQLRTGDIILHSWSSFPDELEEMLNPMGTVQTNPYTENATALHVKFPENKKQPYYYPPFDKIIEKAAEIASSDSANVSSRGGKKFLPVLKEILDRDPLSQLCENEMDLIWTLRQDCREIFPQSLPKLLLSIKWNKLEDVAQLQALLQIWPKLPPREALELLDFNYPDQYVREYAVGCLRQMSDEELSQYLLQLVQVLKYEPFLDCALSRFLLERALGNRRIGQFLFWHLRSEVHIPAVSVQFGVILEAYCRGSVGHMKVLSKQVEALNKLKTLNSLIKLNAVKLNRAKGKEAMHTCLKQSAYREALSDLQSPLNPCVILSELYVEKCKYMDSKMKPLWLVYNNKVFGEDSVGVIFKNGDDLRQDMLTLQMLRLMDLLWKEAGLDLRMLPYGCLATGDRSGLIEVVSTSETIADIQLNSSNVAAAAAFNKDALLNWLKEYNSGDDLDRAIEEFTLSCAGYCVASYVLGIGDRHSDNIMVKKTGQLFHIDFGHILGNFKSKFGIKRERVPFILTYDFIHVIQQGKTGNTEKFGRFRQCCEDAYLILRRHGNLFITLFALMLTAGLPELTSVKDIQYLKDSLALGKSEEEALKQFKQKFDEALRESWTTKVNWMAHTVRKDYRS

CNc1ccc(-c2nc(N3CCOCC3)c3sc(CN(C)c4ncc(C(=O)NO)cn4)cc3n2)cn1
IC50 [1]: 100 to 1000 nM
IC50 [2]: < 100 nM
IC50 [3]: < 100 nM
IC50 [4]: 100 to 1000 nM

CN(Cc1cc2nc(-c3ccc(OCc4ccccc4)nc3)nc(N3CCOCC3)c2s1)c1ncc(C(=O)NO)cn1
IC50 [3]: > 10000 nM

Cc1ncc(-c2nc(N3CCOCC3)c3sc(CN(C)c4ncc(C(=O)NO)cn4)cc3n2)s1
IC50 [3]: 100 to 1000 nM

CC(C)C(=O)Nc1ccc(-c2nc(N3CCOCC3)c3sc(CN(C)c4ncc(C(=O)NO)cn4)cc3n2)cc1
IC50 [3]: 100 to 1000 nM

CNc1ccc(-c2nc(N3CCOCC3)c3sc(C(C)N(C)c4ncc(C(=O)NO)cn4)cc3n2)cn1 (configuration not stated)
IC50 [3]: < 100 nM

CNc1ccc(-c2nc(N3CCOCC3)c3sc(S(=O)(=O)NCC4CCN(c5ncc(C(=O)NO)cn5)CC4)cc3n2)cn1
IC50 [3]: < 100 nM

Nc1ccc(-c2nc(N3CCOCC3)c3sc(CNCc4ccc(C(=O)NO)cc4)cc3n2)cc1
IC50 [3]: > 10000 nM

CN(Cc1cc2nc(-c3ccc(N)c([N+](=O)[O-])c3)nc(N3CCOCC3)c2s1)c1ncc(C(=O)NO)cn1
IC50 [3]: < 100 nM

CN(Cc1cc2nc(-c3ccc(OCCO)nc3)nc(N3CCOCC3)c2s1)c1ncc(C(=O)NO)cn1
IC50 [3]: < 100 nM

CN(Cc1cc2nc(-c3ccc(N)cc3F)nc(N3CCOCC3)c2s1)c1ncc(C(=O)NO)cn1
IC50 [3]: 100 to 1000 nM

CNc1ccc(-c2nc(N3CCOCC3)c3sc(N(C)c4ncc(C(=O)NO)cn4)cc3n2)cn1
IC50 [3]: < 100 nM

C[C@H](O)c1cccc(-c2nc(N3CCOCC3)c3sc(CN(C)c4ncc(C(=O)NO)cn4)cc3n2)c1
IC50 [3]: 100 to 1000 nM

CS(=O)(=O)N1CCN(Cc2cc3nc(-c4ccc(OCCCCCC(=O)NO)cc4)nc(N4CCOCC4)c3s2)CC1
IC50 [3]: 100 to 1000 nM

CN(c1ncc(C(=O)NO)cn1)c1cc2nc(-c3ccc(N)cc3)nc(N3CCOCC3)c2s1
IC50 [3]: < 100 nM

CN(Cc1cc2nc(-c3cccc(C(=O)O)c3)nc(N3CCOCC3)c2s1)c1ncc(C(=O)NO)cn1
IC50 [3]: 100 to 1000 nM

CN(Cc1cc2nc(-c3cccc4[nH]c(=O)sc34)nc(N3CCOCC3)c2s1)c1ncc(C(=O)NO)cn1
IC50 [3]: < 100 nM

Nc1ccc(-c2nc(N3CCOCC3)c3sc(C(=O)NCC4CCN(c5ncc(C(=O)NO)cn5)CC4)cc3n2)cc1
IC50 [3]: 100 to 1000 nM

COc1ccc(-c2nc(N3CCOCC3)c3sc(NCCCCC(=O)NO)cc3n2)cn1
IC50 [3]: < 100 nM

Cn1cc(-c2nc(N3CCOCC3)c3sc(CN(CCO)c4ncc(C(=O)NO)cn4)cc3n2)cn1
IC50 [3]: 100 to 1000 nM

Nc1ccc(-c2nc(N3CCOCC3)c3sc(CN(CCO)c4ncc(C(=O)NO)cn4)cc3n2)cn1
IC50 [3]: < 100 nM

CS(=O)(=O)N1CCN(Cc2cc3nc(-c4cccc5[nH]ncc45)nc(N4CCN(CCCCCC(=O)NO)CC4)c3s2)CC1
IC50 [3]: > 10000 nM

CN(Cc1cc2nc(-c3cccc4c3CCN4)nc(N3CCOCC3)c2s1)c1ncc(C(=O)NO)cn1
IC50 [3]: > 10000 nM

CN(Cc1cc2nc(-c3ccc(N)c(F)c3)nc(N3CCOCC3)c2s1)c1ncc(C(=O)NO)cn1
IC50 [3]: < 100 nM

CN(Cc1cc2nc(-c3cccc(C(C)(C)O)c3)nc(N3CCOCC3)c2s1)c1ncc(C(=O)NO)cn1
IC50 [3]: > 10000 nM

CS(=O)(=O)N1CCN(Cc2cc3nc(-c4cccc5[nH]ncc45)nc(N4CCN(CCCCCCC(=O)NO)CC4)c3s2)CC1
IC50 [3]: > 10000 nM

COc1ncc(-c2nc(N3CCOCC3)c3sc(NS(=O)(=O)c4ccc(C=CC(=O)NO)cc4)cc3n2)cn1
IC50 [3]: < 100 nM

CN(Cc1cc2nc(-c3cccc(CCO)c3)nc(N3CCOCC3)c2s1)c1ncc(C(=O)NO)cn1
IC50 [3]: 100 to 1000 nM

CN(Cc1cc2nc(-c3ccccc3)nc(N3CCOCC3)c2s1)c1ncc(C(=O)NO)cn1
IC50 [3]: > 10000 nM

CN(Cc1cc2nc(-c3ccc(N)c(Cl)c3)nc(N3CCOCC3)c2s1)c1ncc(C(=O)NO)cn1
IC50 [3]: 100 to 1000 nM

CN(Cc1cc2nc(-c3cccc(S(=O)(=O)CCO)c3)nc(N3CCOCC3)c2s1)c1ncc(C(=O)NO)cn1
IC50 [3]: > 10000 nM

CC(=O)c1cc(-c2nc(N3CCOCC3)c3sc(CN(C)c4ncc(C(=O)NO)cn4)cc3n2)ccc1N
IC50 [3]: 100 to 1000 nM

CNc1ccc(-c2nc(N3CCOCC3)c3sc(NCCCCC(=O)NO)cc3n2)cn1
IC50 [3]: < 100 nM

CNc1ccc(-c2nc(N3CCOCC3)c3sc(C(=O)NCC4CCN(c5ncc(C(=O)NO)cn5)CC4)cc3n2)cn1
IC50 [3]: < 100 nM

CN(Cc1cc2nc(-c3cc(F)c(N)c(F)c3)nc(N3CCOCC3)c2s1)c1ncc(C(=O)NO)cn1
IC50 [3]: 100 to 1000 nM

CN(Cc1cc2nc(-c3cccc(SCCO)c3)nc(N3CCOCC3)c2s1)c1ncc(C(=O)NO)cn1
IC50 [3]: 100 to 1000 nM

CC(=O)N1CCN(c2nc(-c3cccc4[nH]ncc34)nc3cc(CN(C)c4ncc(C(=O)NO)cn4)sc23)CC1
IC50 [3]: > 10000 nM

CN(Cc1cc2nc(-c3cccc4[nH]ncc34)nc(N3CCN(CCO)CC3)c2s1)c1ncc(C(=O)NO)cn1
IC50 [3]: > 10000 nM

CN(Cc1cc2nc(-c3ccc(S(C)(=O)=O)cc3)nc(N3CCOCC3)c2s1)c1ncc(C(=O)NO)cn1
IC50 [3]: > 10000 nM

C[C@@H](O)c1cccc(-c2nc(N3CCOCC3)c3sc(CN(C)c4ncc(C(=O)NO)cn4)cc3n2)c1
IC50 [3]: 100 to 1000 nM

Nc1ccc(-c2nc(N3CCOCC3)c3sc(S(=O)(=O)Nc4ncc(C(=O)NO)cn4)cc3n2)cc1
IC50 [3]: < 100 nM

CS(=O)(=O)N1CCN(Cc2cc3nc(-c4cccc5[nH]ncc45)nc(N4CCN(CCCCC(=O)NO)CC4)c3s2)CC1
IC50 [3]: > 10000 nM

CN(Cc1cc2nc(-c3ccc4[nH]c(C(F)(F)F)nc4c3)nc(N3CCOCC3)c2s1)c1ncc(C(=O)NO)cn1
IC50 [3]: < 100 nM

CN(Cc1cc2nc(-c3ccc4[nH]c(=O)[nH]c4c3)nc(N3CCOCC3)c2s1)c1ncc(C(=O)NO)cn1
IC50 [3]: > 10000 nM

CC(=O)NCc1ccc(-c2nc(N3CCOCC3)c3sc(CN(C)c4ncc(C(=O)NO)cn4)cc3n2)cc1
IC50 [3]: > 10000 nM
